Assay results from patent US5441944A, “Substituted cyclodextrin sulfates and their uses as growth modulating agents” (The Trustees of the University of Pennsylvania, priority 1992, dated 1995).

Experiments:
[1] = tested on: tumor angiogenesis in hamster cheek pouches; conditions: Shubik et al. 1976, cited from earlier work
capillary growth; tumors = conditions: cited from earlier work
[2] = tested on: tumor angiogenesis in rabbit corneas; conditions: Gross et al. 1981; cited from earlier work
[3] = conductivity measurements in deionized water; type: physicochemical
Description: Conductivity is an accepted method for measuring the degree of ionic substitution and can be used to evidence the addition of a charged group, such as sulfate to a compound. […] Results of conducting measurements obtained in deionized water having a background conductivity of 2.5 (±0.2)×[…] mho/cm are shown in Table I.

[4] = type: physicochemical; conditions: water
Procedure: The substituted CD sulfates useful in the present invention are highly hydrophilic and therefore very water soluble, with a solubility of at least 20 gm/100 ml in water at 0° C. Without wishing to be bound by theory, we believe that a highly hydrophilic character is important to allow interaction with cellular surfaces. We also believe a very high water solubility of the derivative is an important factor which cooperatively interacts with the inherent complexing ability of the CD structure to provide effective inhibition of angiogenesis with an exogenous steroid, as provided by this invention. We believe that the hydrophilic activity is roughly indicated by the affinity to water, as measured by water solubility. It is important to measure the same at 0° C. since at higher temperatures the most suitable derivatives have solubilities so high that it is difficult to obtain meaningful measurements.

[5] = dye staining analysis for high density sulfate saccharides (Alcian Blue, alumina TLC plate); type: physicochemical; conditions: 0.8 mg/ml sample, 1 μl spot; 0.5 mg/ml Alcian Blue, 0.25M acetate buffer, 5.6 pH
Procedure: Such complexing behavior has been utilized in histology, for selective staining to indicate high sulfur natural saccharides such as heparin (Snow et al., 1987, Human Pathology 18:506-510 and Dorling, 1969, Med. Lab. Techn. 26:124-130).
The following procedure was used to detect the presence of high density sulfate groups. An alumina TLC plate (Analtech, Newark, Del.) was spotted with a drop (1 μl) of a sample (0.8 mg/ml) to be tested. The spot or spots were dried for 10 minutes at about 60° C. Aqueous solution of 0.5 mg/ml of Alcian Blue (8GX, Aldrich), buffered with 0.25M acetate buffer at 5.6 pH is allowed to rise along the plate up to and past the test spot.

Row | Compound | inhibition of tumor angiogenesis [2] | Conductivity [3] | further results
1 | C[C@H]1C[C@@H]2[C@H]([C@@H](O)C[C@@]3(C)[C@H]2CC[C@]3(O)C(=O)CO)[C@@]2(C)C=CC(=O)C=C12 [6 α-methyl prednisolone] |  |  | tumor growth [1]: tumor growth was not stopped; suppression of tumor angiogenesis ([1]; under certain conditions): partially suppressed tumor angiogenesis
2 | C[C@]12CCC(=O)C=C1CC[C@@H]1[C@@H]2C(=O)C[C@@]2(C)[C@H]1CC[C@]2(O)C(=O)CO [cortisone, 17 alpha, 21-dihydroxy-4-pregene-3,11,20-trione] | to a lesser extent cortisone, inhibited tumor angiogenesis |  | inhibition of capillary growth (capillary growth; tumors; cortisone by itself): does not have the ability to inhibit capillary growth; tumor growth (capillary growth; tumors; large amounts of cortisone, many other publications): continued growth of tumors
3 | C[C@@H]1C[C@H]2[C@@H]3CCC4=CC(=O)C=C[C@]4(C)[C@@]3(F)[C@@H](O)C[C@]2(C)[C@@]1(O)C(=O)CO [dexamethasone] | inhibited tumor angiogenesis |  | 
4 | C[C@]12CC[C@@H]3c4ccc(O)cc4CC[C@H]3[C@@H]1CC[C@@H]2O [estradiol] | ineffective |  | 
5 | CC(=O)[C@@]1(O)CC[C@H]2[C@@H]3C[C@H](C)C4=CC(=O)CC[C@]4(C)[C@H]3CC[C@@]21C [medroxyprogestrone] | inhibited tumor angiogenesis |  | 
6 | C[C@]12CC[C@H]3[C@@H](CCC4=CC(=O)CC[C@@]43C)[C@@H]1CC[C@@H]2O [testosterone] | ineffective |  | 
7 | OC[C@H]1O[C@@H]2O[C@H]3[C@H](O)[C@@H](O)[C@@H](O[C@H]4[C@H](O)[C@@H](O)[C@@H](O[C@H]5[C@H](O)[C@@H](O)[C@@H](O[C@H]6[C@H](O)[C@@H](O)[C@@H](O[C@H]7[C@H](O)[C@@H](O)[C@@H](O[C@H]8[C@H](O)[C@@H](O)[C@@H](O[C@H]1[C@H](O)[C@H]2O)O[C@@H]8CO)O[C@@H]7CO)O[C@@H]6CO)O[C@@H]5CO)O[C@@H]4CO)O[C@@H]3CO [β-cyclodextrin] |  | immeasurable | 
8 | n-tetrapropoxy-β-cyclodextrin [n-tetrapropoxy β-cyclodextrin] |  | immeasurable | 
9 | n-tetrapropoxy-β-cyclodextrin sulfate |  | 4.5 10^-4 mho/cm per mg/ml | solubility [4]: 37 gm/100 ml H2O; Alcian Blue stain [5]: generate an Alcian Blue stain
10 | β-cyclodextrin tetradecasulfate |  |  | Alcian Blue stain [5]: generate an Alcian Blue stain; Conductivity (average of 2 samples) ([3]; average of 2 samples): 4.6 10^-4 mho/cm per mg/ml
